Measured values reported in the C3SDB collision cross section collection.
Values joined by “and” are separate entries in the source; they are usually repeats but may differ in a detail not shown here. Identical values can stand only once. Values belong to the compound of their own block, whether it stands above or below them.

Tests used:
[1] = [M+H]+; instrument: DT; stepped-field
[2] = instrument: DT, stepped-field
[3] = instrument: TW, calibrated with phosphatidylcholines (ESI+) and phosphatidylethanolamines (ESI-)
[4] = instrument: DT, single field, calibrated with Agilent tune mix (Agilent)
[5] = instrument: DT, stepped-field; remark: listed apart in the source
[6] = [M+H]+; instrument: DT; single field

collision cross section (N2) [1]: 235.59 Å² and 236.1 Å²
collision cross section (N2) ([2]; [M+H]+): 236.2 Å²
collision cross section (N2) ([3]; [M+H]+): 230.8 Å²
collision cross section (N2) ([4]; [M+HCOO]-): 238.6 Å²
collision cross section (N2) ([4]; [M+Na]+): 236.1 Å²
Structure (SMILES): CCCCCCCC/C=C\CCCCCCCC(=O)OC[C@@H](O)COP(=O)([O-])OCC[N+](C)(C)C [LPC(18:1)]

collision cross section (N2) ([2]; [M-H]-): 285.5 Å²
Structure (SMILES): CCCCC/C=C\C/C=C\CCCCCCCCCCCC(=O)O[C@H](COC(=O)CCCCCCCCCCCCCC)COP(=O)(O)OC[C@@H](O)CO [PG(37:2)]

collision cross section (N2) ([2]; [M-H]-): 233.4 Å²
Structure (SMILES): CCCCCCCC/C=C\CCCCCCCC(=O)OC[C@@H](O)COP(=O)(O)O[C@H]1C(O)C(O)C(O)[C@@H](O)C1O (stereo not given in full) [LPI(18:1)]

collision cross section (N2) ([2]; [M+H]+): 276.6 Å²
Structure (SMILES): CCCC/C=C\CCCCCCCCCC(=O)OC[C@H](COP(=O)(O)OCCN)OC(=O)CCCCCCCCC/C=C\CCCC [PE(16:1/16:1)]

collision cross section (N2) ([2]; [M+H]+): 297.2 Å²
Structure (SMILES): CCCCC/C=C\C/C=C\C/C=C\C/C=C\CCCC(=O)O[C@H](COCCCCCCCCCCCCCCCC)COP(=O)([O-])OCC[N+](C)(C)C [PC(o36:4)]

collision cross section (N2) ([2]; [M-H]-): 272.6 Å²
Structure (SMILES): CCCCCCCCC/C=C\CCCCCCCC(=O)O[C@H](COC(=O)CCCCCCCCCCCC)COP(=O)(O)OC[C@H](N)C(=O)O [PS(16:0/16:1)]

collision cross section (N2) ([2]; [M+H]+): 299.9 Å²
collision cross section (N2) ([3]; [M+CH3COO]-): 294 Å²
collision cross section (N2) ([3]; [M+H]+): 286.8 Å²
collision cross section (N2) ([4]; [M+HCOO]-): 291.9 Å²
collision cross section (N2) ([4]; [M+Na]+): 293.3 Å²
Structure (SMILES): CC/C=C\C/C=C\C/C=C\CCCCCCCC(=O)OC[C@H](COP(=O)([O-])OCC[N+](C)(C)C)OC(=O)CCCCCC/C=C\C/C=C\C/C=C\CCCCC [PC(38:6)]

collision cross section (N2) [6]: 281.13 Å²
collision cross section (N2) ([5]; [M+Na]+): 285.1 Å²
collision cross section (N2) ([4]; [M+HCOO]-): 280.9 Å²
collision cross section (N2) ([4]; [M+H]+): 283.9 Å²
Structure (SMILES): CCCCCCCCCCCCC=CC[C@@H](O)[C@H](COP(=O)([O-])OCC[N+](C)(C)C)NC(=O)CCCCCCCCCCCCCCC [SM(34:1)]

collision cross section (N2) ([2]; [M-H]-): 191.1 Å²
Structure (SMILES): CCCCCC/C=C\CCCCCCCC(=O)OC[C@@H](O)COP(=O)(O)O [LPA(16:1)]

collision cross section (N2) ([2]; [M-H]-): 280 Å²
collision cross section (N2) ([3]; [M+Na]+): 282 Å²
collision cross section (N2) ([3]; [M-H]-): 272.2 Å²
collision cross section (N2) ([4]; [M+H]+): 285.4 Å²
collision cross section (N2) ([4]; [M+NH4]+): 286.5 Å²
collision cross section (N2) ([4]; [M-H]-): 272.8 Å²
Structure (SMILES): CCCC/C=C\CCCCCCCC(=O)OC[C@H](COP(=O)(O)OC[C@@H](O)CO)OC(=O)CCCCCCCCCCC/C=C\C/C=C\CCCCC [PG(36:3)]

collision cross section (N2) ([2]; [M-H]-): 270.6 Å²
Structure (SMILES): CCCC/C=C\CCCCCCCC(=O)OC[C@H](COP(=O)(O)OC[C@H](N)C(=O)O)OC(=O)CCCCCCC/C=C\CCCCCCCC [PS(16:1/16:1)]

collision cross section (N2) ([2]; [M-H]-): 250 Å²
Structure (SMILES): CCCCC/C=C\C/C=C\CCCCCCCCCC(=O)O[C@H](COC(=O)CCCCCCCCCCC)COP(=O)(O)O [PA(16:1/16:1)]

Further lines, the compound ahead of its results:

Structure (SMILES): CCCC/C=C\CCCCCCCCCCCC(=O)O[C@H](COC(=O)CCCCCCCCCCCCCCCCCCC)COP(=O)(O)OCCN [PE(38:1)]
collision cross section (N2) ([2]; [M+H]+): 299.8 Å²

Structure (SMILES): CCCCC/C=C\C/C=C\C/C=C\C/C=C\CCCC(=O)O[C@H](COCCCCCCCCCCCCCCCC)COP(=O)(O)OCCN [PE(o36:4)]
collision cross section (N2) ([5]; [M+Na]+): 281.6 Å²
collision cross section (N2) ([2]; [M-H]-): 270 Å²

Structure (SMILES): CCCCC/C=C\C/C=C\CCCCCCCCCCCC(=O)O[C@H](COC(=O)CCCCCCCCCCCCCCCCC)COP(=O)(O)OC[C@H](N)C(=O)O [PS(40:2)]
collision cross section (N2) ([2]; [M-H]-): 301 Å²

Structure (SMILES): CCCCC/C=C\C/C=C\C/C=C\CCCCC(=O)OC[C@H](COP(=O)(O)OC[C@H](N)C(=O)O)OC(=O)CCCCCCCCCCC/C=C\C/C=C\CCCCC [PS(40:5)]
collision cross section (N2) ([2]; [M-H]-): 296.4 Å²
collision cross section (N2) ([3]; [M-H]-): 285.6 Å²
collision cross section (N2) ([4]; [M+H]+): 292.1 Å²
collision cross section (N2) ([4]; [M+Na]+): 296.7 Å²
collision cross section (N2) ([4]; [M-H]-): 285.7 Å²

Structure (SMILES): CCCCC/C=C\C/C=C\CCCCCCCCCCCC(=O)O[C@H](COC(=O)CCCCCCC/C=C\CCCCCCCC)COP(=O)(O)OC[C@H](N)C(=O)O [PS(40:3)]
collision cross section (N2) ([2]; [M-H]-): 299 Å²
collision cross section (N2) ([4]; [M+H]+): 295.2 Å²

Structure (SMILES): CCCCC/C=C\C/C=C\C/C=C\C/C=C\C/C=C\CCC(=O)O[C@H](COCCCCCCCCCCCCCCCC)COP(=O)(O)OCCN [PE(o38:5)]
collision cross section (N2) ([5]; [M+Na]+): 287.7 Å²
collision cross section (N2) ([2]; [M-H]-): 277.8 Å²

Structure (SMILES): CCCCCCCC/C=C\CCCCCCCC(=O)O[C@H](COC(=O)CCCCCCCCCCCCCCC)COP(=O)(O)OC[C@H](N)C(=O)O [PS(16:0/18:1)]
collision cross section (N2) ([2]; [M-H]-): 278.8 Å²

Structure (SMILES): CCCCCCCCCC/C=C\CCCCCCCCCC(=O)O[C@H](COC(=O)CCCCCCCCCCCCC)COP(=O)(O)O[C@H]1C(O)C(O)C(O)[C@@H](O)C1O (stereo not given in full) [PI(18:0/18:1)]
collision cross section (N2) ([2]; [M-H]-): 297.5 Å² and 297.7 Å²

Structure (SMILES): CCCCC/C=C\C/C=C\C/C=C\C/C=C\CCCCCC(=O)O[C@H](COC(=O)CCCCCCC/C=C\C/C=C\CCCCC)COP(=O)(O)OCCN [PE(40:6)]
collision cross section (N2) ([5]; [M+K]+): 294.7 Å²
collision cross section (N2) ([2]; [M-H]-): 289.4 Å²
collision cross section (N2) ([3]; [M+H]+): 282.9 Å²
collision cross section (N2) ([3]; [M-H]-): 275.4 Å²
collision cross section (N2) ([4]; [M+H]+): 284.5 Å²
collision cross section (N2) ([4]; [M+Na]+): 290.3 Å²
collision cross section (N2) ([4]; [M-H]-): 276.2 Å²
